Results published in US10172832B2, “Amide derivatives of N-urea substituted amino acids as formyl peptide receptor like-1 (FPRL-1) receptor modulators” (Allergan, Inc., priority 2011, dated 2019).

Biological target: T1, FPRL-1 (Homo sapiens, UniProt P25090)
T1 construct: expressed in transfected cells
T1 sequence (P25090 1-351): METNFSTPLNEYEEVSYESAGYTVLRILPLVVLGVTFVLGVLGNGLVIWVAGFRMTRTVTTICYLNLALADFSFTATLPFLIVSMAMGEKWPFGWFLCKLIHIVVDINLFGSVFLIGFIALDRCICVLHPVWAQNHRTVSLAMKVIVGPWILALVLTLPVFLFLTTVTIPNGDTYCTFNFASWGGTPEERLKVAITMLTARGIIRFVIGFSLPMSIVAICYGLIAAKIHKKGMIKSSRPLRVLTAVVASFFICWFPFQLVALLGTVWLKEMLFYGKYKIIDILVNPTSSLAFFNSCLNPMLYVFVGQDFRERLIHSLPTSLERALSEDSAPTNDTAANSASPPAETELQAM
Assay: compound-induced calcium activity on FLIPR Tetra in CHO-Gα16 cells stably expressing FPRL1
Format: cell-based
Settings: for FPRL-1 Ga16-CHO (Rel. eff.): relative efficacy; for EC50: tested 0.61 to 10,000 nM, read-out: FPRL-1 Ga16-CHO EC50
Experimental: CHO-Gα16 cells stably expressing FPRL1 were cultured in (F12, 10% FBS, 1% PSA, 400 μg/ml geneticin and 50 μg/ml hygromycin) and HEK-Gqi5 cells stable expressing FPR1 were cultured in (DMEM high glucose, 10% FBS, 1% PSA, 400 μg/ml geneticin and 50 μg/ml hygromycin). In general, the day before the experiment, 18,000 cells/well were plated in a 384-well clear bottom poly-d-lysine coated plate. The following day the screening compound-induced calcium activity was assayed on the FLIPR^Tetra. The drug plates were prepared in 384-well microplates using the EP3 and the MultiPROBE robotic liquid handling systems. Compounds were tested at concentrations ranging from 0.61 to 10,000 nM. Results are expressed as EC50 (nM) and efficacy values.

Row | Compound | FPRL-1 Ga16-CHO (Rel. eff.) | EC50 [nM]
1 | CC(C)C[C@@H](NC(=O)Nc1ccc(Br)cc1)C(=O)NC(C)(C)C(=O)O [Compound 87, 2-{[(2R)-2-{[(4-bromophenyl)carbamoyl]amino}-4-methylpentanoyl]amino}-2-methylpropanoic acid] | (0.74) | 490
2 | CC(C)C[C@H](NC(=O)Nc1ccc(S(C)(=O)=O)cc1)C(=O)NCC(=O)OC(C)(C)C [Compound 76, tert-butyl {[(2S)-4-methyl-2-({[4-(methylsulfonyl)phenyl]carbamoyl}amino)pentanoyl]amino}acetate] | (0.90) | 1080
3 | CC(C)C[C@H](NC(=O)Nc1ccc(Br)cc1F)C(=O)NCC(=O)OC(C)(C)C [Compound 33, tert-butyl{[(2S)-2-{[(4-bromo-2-fluorophenyl)carbamoyl]amino}-4-methylpentanoyl]amino}acetate] | (1.19) | 134
4 | CCC[C@H](NC(=O)Nc1ccc(Br)cc1F)C(=O)NCC(=O)O [{[(2S)-2-{[(4-bromo-2-fluorophenyl)carbamoyl]amino}pentanoyl]amino}acetic acid] | (0.92) | 4.8
5 | CC(C)C[C@H](NC(=O)Nc1ccc([S+](C)[O-])cc1)C(=O)NCC(=O)OC(C)(C)C (stereo partly drawn) [Compound 75, tert-butyl {[(2S)-4-methyl-2-({[4-(methylsulfinyl)phenyl]carbamoyl}amino)pentanoyl]amino}acetate] | (0.97) | 668
6 | CC(C)C[C@H](NC(=O)Nc1ccc(Br)cc1F)C(=O)N[C@@H](C)C(=O)OC(C)(C)C [Compound 38, tert-butyl(2S)-2-{[(2S)-2-{[(4-bromo-2-fluorophenyl)carbamoyl]amino}-4-methylpentanoyl]amino}propanoate] | (1.00) | 174
7 | CC(C)C[C@H](NC(=O)Nc1ccc(C(F)(F)F)cc1)C(=O)NCC(=O)OC(C)(C)C [Compound 62, tert-butyl {[(2S)-4-methyl-2-({[4-(trifluoromethyl)phenyl]carbamoyl}amino)pentanoyl]amino}acetate] | (0.81) | 309
8 | CC(C)C[C@@H](NC(=O)Nc1ccc(Br)cc1F)C(=O)NCC(=O)O [{[(2R)-2-{[(4-bromo-2-fluorophenyl)carbamoyl]amino}-4-methylpentanoyl]amino}acetic acid] | (0.87) | 1490
9 | CSCC[C@H](NC(=O)Nc1ccc(Br)cc1)C(=O)NCC(=O)OC(C)(C)C [Compound 80, tert-butyl {[(2S)-2-{[(4-bromophenyl)carbamoyl]amino}-4-(methylsulfanyl)butanoyl]amino}acetate] | (0.98) | 127
10 | CC(C)CC(C)(NC(=O)Nc1ccc(Br)cc1)C(=O)NCC(=O)OC(C)(C)C (stereo not shown) [Compound 55, tert-butyl {[2-{[(4-bromophenyl)carbamoyl]amino}-2,4-dimethylpentanoyl]amino}acetate] | (0.98) | 58
11 | CC(C)C[C@H](NC(=O)Nc1ccc(Br)cc1F)C(=O)N[C@@H](C)C(=O)O [Compound 39, (2S)-2-{[(2S)-2-{[(4-bromo-2-fluorophenyl)carbamoyl]amino}-4-methylpentanoyl]amino}propanoic acid] | (0.95) | 12
12 | CC[C@H](C)[C@H](NC(=O)Nc1ccc(Br)cc1)C(=O)NCC(=O)OC(C)(C)C [Compound 11, tert-butyl{[(2S,3S)-2-{[(4-bromophenyl)carbamoyl]amino}-3-methylpentanoyl]amino}acetate] | (0.85) | 280
13 | CC(C)C[C@H](NC(=O)Nc1ccc(C(F)(F)F)cc1)C(=O)NC(C)(C)C(=O)OC(C)(C)C [Compound 79, tert-butyl 2-methyl-2-{[(2S)-4-methyl-2-({[4-(trifluoromethyl)phenyl]carbamoyl}amino)pentanoyl]amino}propanoate] | (1.07) | 1020
14 | CC(C)C[C@H](NC(=O)Nc1ccc(SC(F)(F)F)cc1)C(=O)NCC(=O)O [Compound 72, ({(2S)-4-methyl-2-[({4-[(trifluoromethyl)sulfanyl]phenyl}carbamoyl)amino]pentanoyl}amino)acetic acid] | (1.07) | 560
15 | CC(C)C[C@H](NC(=O)Nc1ccc(Br)cc1)C(=O)N[C@H](C)CO [Compound 48, (2S)-2-{[(4-bromophenyl)carbamoyl]amino}-N-[(1R)-2-hydroxy-1-methylethyl]-4-methylpentanamide] |  | 3
16 | CC(=O)CNC(=O)[C@H](CC(C)C)NC(=O)Nc1ccc(Br)cc1F [Compound 35, (2S)-2-{[(4-bromo-2-fluorophenyl)carbamoyl]amino}-4-methyl-N-(2-oxopropyl)pentanamide] | (0.99) | 20
17 | CC(C)C[C@@H](NC(=O)Nc1ccc(Br)cc1)C(=O)NC(C)(C)C(=O)OC(C)(C)C [Compound 86, tert-butyl 2-{[(2R)-2-{[(4-bromophenyl)carbamoyl]amino}-4-methylpentanoyl]amino}-2-methylpropanoate] | (0.74) | 2730
18 | CC(C)C[C@H](NC(=O)Nc1ccc(Br)cc1)C(=O)N[C@H](C(N)=O)C(C)C [Compound 46] | (1.03) | 1.3
19 | CCC[C@H](NC(=O)Nc1ccc(Br)cc1F)C(=O)NCC(N)=O [Compound 31, (2S)-N-(2-amino-2-oxoethyl)-2-{[(4-bromo-2-fluorophenyl]carbamoyl}amino)pentanamide] | (0.98) | 5.2

Further lines, results first:

Row | FPRL-1 Ga16-CHO (Rel. eff.) | EC50 [nM] | Compound
20 | (0.97) | 10 | CC[C@H](C)[C@H](NC(=O)Nc1ccc(Br)cc1)C(=O)NCC(C)=O [Compound 12, (2S,3S)-2-{[(4-bromophenyl)carbamoyl]amino}-3-methyl-N-(2-oxopropyl)pentanamide]
21 | (0.99) | 7.7 | O=C(O)CNC(=O)[C@H](Cc1ccccc1)NC(=O)Nc1ccc(Br)cc1 [Compound 1, {[(2S)-2-{[(4-bromophenyl)carbamoyl]amino}-3-phenylpropanoyl]amino}acetic acid]
22 | (1.01) | 247 | CS(=O)(=O)CC[C@H](NC(=O)Nc1ccc(Br)cc1)C(=O)NCC(=O)O [Compound 83, {[(2S)-2-{[(4-bromophenyl)carbamoyl]amino}-4-(methylsulfonyl)butanoyl]amino}acetic acid]
23 | (0.96) | 29 | CC(=O)CNC(=O)[C@H](Cc1ccccc1)NC(=O)Nc1ccc(Br)cc1 [Compound 16, (2S)-2-{[(4-bromophenyl)carbamoyl]aminio}-N-(2-oxopropyl)-3-phenylpropanamide]
24 | (1.05) | 35 | CCC[C@H](NC(=O)Nc1ccc(Br)cc1)C(=O)NCC(C)=O [(2S)-2-{[(4-bromophenyl)carbamoyl]amino}-N-(2-oxopropyl)pentanamide]
25 | (1.04) | 19 | CCC(CC)(NC(=O)Nc1ccc(Br)cc1)C(=O)NCC(=O)O [Compound 58, {[2-{[(4-bromophenyl)carbamoyl]amino}-2-ethylbutanoyl]amino}acetic acid]
26 | (0.90) | 2310 | CC(C)(C)OC(=O)CNC(=O)C(CC(N)=O)NC(=O)Nc1ccc(Br)cc1 (stereo not shown) [Compound 88, tert-butyl {[4-amino-2-{[(4-bromophenyl)carbamoyl]amino}-4-oxobutanoyl]amino}acetate]
27 | (0.98) | 16 | O=C(Nc1ccc(Br)cc1F)N[C@@H](Cc1ccccc1)C(=O)NCCO [Compound 19, (2S)-2-{[(4-bromo-2-fluorophenyl)carbamoyl]amino}-N-(2-hydroxyethyl)-3-phenylpropanamide]
28 | (0.94) | 12 | CC(=O)CNC(=O)[C@H](Cc1ccccc1)NC(=O)Nc1ccc(Br)cc1F [Compound 17, (2S)-2-{[(4-bromo-2-fluorophenyl)carbamoyl]amino}-N-(2-oxopropyl)-3-phenylpropanamide]
29 | (0.92) | 11 | CC(C)C[C@H](NC(=O)Nc1ccc(Br)cc1)C(=O)NCCO [Compound 26, (2S)-2-{[(4-bromophenyl)carbamoyl]amino}-N-(2-hydroxyethyl)-4-methylpentanamide]
30 | (0.95) | 31 | CCC[C@H](NC(=O)Nc1ccc(Br)cc1)C(=O)NCC(=O)OC(C)(C)C [Compound 18, tert-butyl {[(2S)-2-{[(4-bromophenyl)carbamoyl]amino}-pentanoyl]amino}acetate]
31 | (0.95) | 10 | O=C(O)CNC(=O)C(Cc1c[nH]cn1)NC(=O)Nc1ccc(Br)cc1 (stereo not shown) [Compound 85, {[2-{[(4-bromophenyl)carbamoyl]amino}-3-(1H-imidazol-4-yl)propanoyl]amino}acetic acid]
